The target of assay [1] is Casein kinase I isoform alpha (Homo sapiens) (UniProt P48729). Description: Inhibition of CSNK1A1 (unknown origin) assessed as residual activity at 1000 nM by KINOMEscan analysis relative to control.
Assay [2] concerns the target Tyrosine-protein kinase Yes (Homo sapiens) (UniProt P07947). In words: Inhibition of YES (unknown origin) assessed as residual activity at 1000 nM by KINOMEscan analysis relative to control.
Assay [3] deals with Citron Rho-interacting kinase (Homo sapiens) (UniProt O14578). In words: Inhibition of CIT (unknown origin) assessed as residual activity at 1000 nM by KINOMEscan analysis relative to control.
Chain of Citron Rho-interacting kinase (Homo sapiens) (O14578 whole entry): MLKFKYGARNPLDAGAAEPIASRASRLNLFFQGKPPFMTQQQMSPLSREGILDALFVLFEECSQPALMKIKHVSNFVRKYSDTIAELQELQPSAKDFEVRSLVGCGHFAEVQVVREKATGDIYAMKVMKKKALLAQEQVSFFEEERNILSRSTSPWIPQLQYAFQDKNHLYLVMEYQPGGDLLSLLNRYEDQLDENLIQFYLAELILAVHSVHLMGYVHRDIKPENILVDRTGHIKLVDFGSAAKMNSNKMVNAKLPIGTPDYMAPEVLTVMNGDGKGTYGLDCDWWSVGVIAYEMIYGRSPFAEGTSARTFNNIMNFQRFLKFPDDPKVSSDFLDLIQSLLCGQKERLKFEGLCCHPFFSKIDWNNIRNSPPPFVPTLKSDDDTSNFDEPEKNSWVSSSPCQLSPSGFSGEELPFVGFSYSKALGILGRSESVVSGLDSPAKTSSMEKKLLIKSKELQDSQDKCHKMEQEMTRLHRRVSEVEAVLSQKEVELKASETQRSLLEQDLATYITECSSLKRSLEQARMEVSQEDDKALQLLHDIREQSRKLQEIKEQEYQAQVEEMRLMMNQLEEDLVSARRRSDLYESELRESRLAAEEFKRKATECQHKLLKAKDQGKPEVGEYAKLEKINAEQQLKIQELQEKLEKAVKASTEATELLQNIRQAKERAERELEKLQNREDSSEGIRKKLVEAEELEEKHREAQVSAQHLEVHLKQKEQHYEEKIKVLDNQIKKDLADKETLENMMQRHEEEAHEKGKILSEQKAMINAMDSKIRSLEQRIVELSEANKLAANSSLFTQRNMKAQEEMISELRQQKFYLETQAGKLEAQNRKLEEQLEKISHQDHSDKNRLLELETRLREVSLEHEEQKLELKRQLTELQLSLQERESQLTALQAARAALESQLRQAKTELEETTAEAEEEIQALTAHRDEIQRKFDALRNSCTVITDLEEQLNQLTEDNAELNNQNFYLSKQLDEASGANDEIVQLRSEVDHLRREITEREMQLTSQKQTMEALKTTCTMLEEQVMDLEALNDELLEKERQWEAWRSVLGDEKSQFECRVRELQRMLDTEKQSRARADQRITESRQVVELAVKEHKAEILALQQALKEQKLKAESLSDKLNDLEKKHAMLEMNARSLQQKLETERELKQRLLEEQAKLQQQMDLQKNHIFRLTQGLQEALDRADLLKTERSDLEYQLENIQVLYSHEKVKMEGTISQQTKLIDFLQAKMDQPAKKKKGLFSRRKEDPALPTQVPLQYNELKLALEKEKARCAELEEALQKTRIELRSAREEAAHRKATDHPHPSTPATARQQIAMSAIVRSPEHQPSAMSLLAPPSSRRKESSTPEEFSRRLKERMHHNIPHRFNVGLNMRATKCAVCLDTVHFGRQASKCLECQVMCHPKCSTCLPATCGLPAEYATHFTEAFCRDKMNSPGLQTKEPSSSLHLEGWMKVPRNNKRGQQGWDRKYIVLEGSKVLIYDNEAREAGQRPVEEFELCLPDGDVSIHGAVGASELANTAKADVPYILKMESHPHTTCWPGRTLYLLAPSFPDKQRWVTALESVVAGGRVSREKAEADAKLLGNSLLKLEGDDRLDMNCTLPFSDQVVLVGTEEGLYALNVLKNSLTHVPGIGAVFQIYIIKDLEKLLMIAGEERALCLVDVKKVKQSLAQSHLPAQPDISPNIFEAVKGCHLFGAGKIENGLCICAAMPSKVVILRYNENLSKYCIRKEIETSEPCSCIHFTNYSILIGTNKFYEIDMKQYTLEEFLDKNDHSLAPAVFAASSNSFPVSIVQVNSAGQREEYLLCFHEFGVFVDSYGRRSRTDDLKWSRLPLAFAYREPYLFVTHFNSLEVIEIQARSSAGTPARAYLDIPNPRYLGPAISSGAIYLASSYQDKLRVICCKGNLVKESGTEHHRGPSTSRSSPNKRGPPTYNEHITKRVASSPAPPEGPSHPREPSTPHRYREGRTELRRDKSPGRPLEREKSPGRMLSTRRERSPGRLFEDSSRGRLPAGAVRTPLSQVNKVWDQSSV
The target of assay [4] is Serine/threonine-protein kinase SBK1 (Homo sapiens) (UniProt Q52WX2). Description: Inhibition of SBK1 (unknown origin) assessed as residual activity at 1000 nM by KINOMEscan analysis relative to control.
In assay [5] the target is T1, Dual specificity mitogen-activated protein kinase kinase 4 (Homo sapiens) (UniProt P45985).
T1 sequence (whole entry): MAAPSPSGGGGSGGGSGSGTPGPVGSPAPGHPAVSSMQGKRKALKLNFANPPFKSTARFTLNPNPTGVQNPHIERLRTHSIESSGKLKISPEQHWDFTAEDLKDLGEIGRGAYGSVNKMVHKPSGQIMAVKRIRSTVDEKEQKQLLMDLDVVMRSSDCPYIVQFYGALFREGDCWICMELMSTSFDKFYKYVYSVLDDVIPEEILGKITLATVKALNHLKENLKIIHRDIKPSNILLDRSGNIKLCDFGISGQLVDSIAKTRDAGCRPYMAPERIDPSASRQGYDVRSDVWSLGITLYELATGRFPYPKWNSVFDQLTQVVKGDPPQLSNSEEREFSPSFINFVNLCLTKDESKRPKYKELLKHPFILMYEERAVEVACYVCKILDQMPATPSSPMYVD
Description: Inhibition of MEK4 (unknown origin) assessed as residual activity at 1000 nM by KINOMEscan analysis relative to control.

Assay [6] concerns the target Vascular endothelial growth factor receptor 3 (Homo sapiens) (UniProt P35916). In words: Inhibition of FLT4 (unknown origin) assessed as residual activity at 1000 nM by KINOMEscan analysis relative to control.
Assay [7] deals with T2, Aurora kinase C (Homo sapiens) (UniProt Q9UQB9).
T2 sequence (whole entry): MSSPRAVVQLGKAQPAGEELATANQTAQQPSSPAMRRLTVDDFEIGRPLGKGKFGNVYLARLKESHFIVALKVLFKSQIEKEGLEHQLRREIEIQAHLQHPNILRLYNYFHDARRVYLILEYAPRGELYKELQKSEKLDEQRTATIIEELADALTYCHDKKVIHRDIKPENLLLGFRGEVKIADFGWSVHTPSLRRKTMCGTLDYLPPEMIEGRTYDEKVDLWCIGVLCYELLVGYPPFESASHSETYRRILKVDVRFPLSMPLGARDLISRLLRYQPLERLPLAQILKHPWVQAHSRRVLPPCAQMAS
Description: Inhibition of AURKC (unknown origin) assessed as residual activity at 1000 nM by KINOMEscan analysis relative to control.

Assay [8] has as its target Rho-associated protein kinase 1 (Homo sapiens) (UniProt Q13464). In words: Inhibition of ROCK1 (unknown origin) assessed as residual activity at 1000 nM by KINOMEscan analysis relative to control.
Assay [9] has as its target Ribosomal protein S6 kinase alpha-2 (Homo sapiens) (UniProt Q15349). In words: Inhibition of C-terminal RSK3 […] domain 2 (unknown origin) assessed as residual activity at 1000 nM by KINOMEscan analysis relative to control.
Assay [10] concerns the target T3, Casein kinase I isoform alpha-like (Homo sapiens) (UniProt Q8N752).
T3 sequence (whole entry): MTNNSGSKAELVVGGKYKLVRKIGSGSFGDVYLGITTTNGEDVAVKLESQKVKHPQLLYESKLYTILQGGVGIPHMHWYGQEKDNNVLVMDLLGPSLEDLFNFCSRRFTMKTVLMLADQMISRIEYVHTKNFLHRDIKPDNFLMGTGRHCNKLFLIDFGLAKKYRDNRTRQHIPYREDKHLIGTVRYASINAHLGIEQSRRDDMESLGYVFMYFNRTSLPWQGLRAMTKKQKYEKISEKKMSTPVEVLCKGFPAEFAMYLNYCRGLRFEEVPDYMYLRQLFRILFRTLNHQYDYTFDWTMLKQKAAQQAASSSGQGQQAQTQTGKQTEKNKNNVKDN
Description: Inhibition of CSNK1A1L (unknown origin) assessed as residual activity at 1000 nM by KINOMEscan analysis relative to control.

Assay [11] addresses T4, Tyrosine-protein kinase Mer (Homo sapiens) (UniProt Q12866).
T4 sequence (whole entry): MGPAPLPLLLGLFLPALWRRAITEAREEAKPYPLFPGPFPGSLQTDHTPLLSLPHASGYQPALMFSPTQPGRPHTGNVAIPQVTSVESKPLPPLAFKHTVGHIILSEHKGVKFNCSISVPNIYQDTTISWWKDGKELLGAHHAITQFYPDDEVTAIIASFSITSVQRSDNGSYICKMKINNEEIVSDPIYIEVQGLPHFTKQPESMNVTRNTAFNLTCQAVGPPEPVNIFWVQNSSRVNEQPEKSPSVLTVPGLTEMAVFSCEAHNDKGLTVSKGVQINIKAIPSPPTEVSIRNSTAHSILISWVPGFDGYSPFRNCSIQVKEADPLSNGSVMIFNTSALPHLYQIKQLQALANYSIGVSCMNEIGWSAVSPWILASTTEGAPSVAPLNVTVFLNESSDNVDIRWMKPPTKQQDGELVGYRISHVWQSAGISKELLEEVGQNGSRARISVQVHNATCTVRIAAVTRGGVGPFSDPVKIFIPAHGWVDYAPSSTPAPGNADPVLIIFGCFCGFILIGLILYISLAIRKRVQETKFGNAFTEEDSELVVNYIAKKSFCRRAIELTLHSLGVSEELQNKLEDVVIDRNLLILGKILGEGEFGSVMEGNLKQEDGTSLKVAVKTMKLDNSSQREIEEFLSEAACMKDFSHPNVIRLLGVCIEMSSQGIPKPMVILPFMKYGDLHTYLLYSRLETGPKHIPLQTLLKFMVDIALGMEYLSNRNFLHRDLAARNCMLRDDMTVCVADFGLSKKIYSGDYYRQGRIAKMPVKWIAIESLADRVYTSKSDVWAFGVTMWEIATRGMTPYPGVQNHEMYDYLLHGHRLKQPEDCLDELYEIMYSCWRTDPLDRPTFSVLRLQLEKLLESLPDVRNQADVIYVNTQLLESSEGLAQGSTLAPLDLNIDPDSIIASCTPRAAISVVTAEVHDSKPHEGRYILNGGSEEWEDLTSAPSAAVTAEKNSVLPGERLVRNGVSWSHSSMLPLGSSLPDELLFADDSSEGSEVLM
Description: Inhibition of MERTK (unknown origin) assessed as residual activity at 1000 nM by KINOMEscan analysis relative to control.

For another assay, the species on record is Homo sapiens. In words: Inhibition of JNK2 (unknown origin) assessed as residual activity at 1000 nM by KINOMEscan analysis relative to control.

The structures appear in SMILES notation.

Chain of Tyrosine-protein kinase Yes (Homo sapiens) (P07947 2-543 limits assumed): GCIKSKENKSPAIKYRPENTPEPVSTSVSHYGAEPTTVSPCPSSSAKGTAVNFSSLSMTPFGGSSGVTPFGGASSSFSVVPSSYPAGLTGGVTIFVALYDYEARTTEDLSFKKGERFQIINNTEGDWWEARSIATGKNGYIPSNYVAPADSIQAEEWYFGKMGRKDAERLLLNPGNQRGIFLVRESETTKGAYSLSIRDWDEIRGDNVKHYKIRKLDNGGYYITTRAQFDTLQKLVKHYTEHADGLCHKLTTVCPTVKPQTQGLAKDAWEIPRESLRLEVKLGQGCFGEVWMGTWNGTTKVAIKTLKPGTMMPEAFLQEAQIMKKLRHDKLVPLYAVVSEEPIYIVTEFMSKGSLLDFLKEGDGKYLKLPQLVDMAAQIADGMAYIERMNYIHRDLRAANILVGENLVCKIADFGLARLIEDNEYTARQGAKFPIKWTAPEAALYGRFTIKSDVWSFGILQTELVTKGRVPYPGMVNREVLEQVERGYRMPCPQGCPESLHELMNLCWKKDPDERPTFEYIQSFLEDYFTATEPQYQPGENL
Chain of Casein kinase I isoform alpha (Homo sapiens) (P48729 2-337 limits assumed): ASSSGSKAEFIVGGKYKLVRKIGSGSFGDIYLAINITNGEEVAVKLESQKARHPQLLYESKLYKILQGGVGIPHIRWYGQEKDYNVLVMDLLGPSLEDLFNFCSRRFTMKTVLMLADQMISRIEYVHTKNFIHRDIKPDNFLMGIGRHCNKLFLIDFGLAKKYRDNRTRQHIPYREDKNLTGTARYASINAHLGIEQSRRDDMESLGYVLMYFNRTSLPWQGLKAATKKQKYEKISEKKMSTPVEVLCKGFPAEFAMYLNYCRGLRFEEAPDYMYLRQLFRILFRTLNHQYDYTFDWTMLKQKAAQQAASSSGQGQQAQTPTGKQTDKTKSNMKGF
Chain of Rho-associated protein kinase 1 (Homo sapiens) (Q13464 2-1354 limits assumed): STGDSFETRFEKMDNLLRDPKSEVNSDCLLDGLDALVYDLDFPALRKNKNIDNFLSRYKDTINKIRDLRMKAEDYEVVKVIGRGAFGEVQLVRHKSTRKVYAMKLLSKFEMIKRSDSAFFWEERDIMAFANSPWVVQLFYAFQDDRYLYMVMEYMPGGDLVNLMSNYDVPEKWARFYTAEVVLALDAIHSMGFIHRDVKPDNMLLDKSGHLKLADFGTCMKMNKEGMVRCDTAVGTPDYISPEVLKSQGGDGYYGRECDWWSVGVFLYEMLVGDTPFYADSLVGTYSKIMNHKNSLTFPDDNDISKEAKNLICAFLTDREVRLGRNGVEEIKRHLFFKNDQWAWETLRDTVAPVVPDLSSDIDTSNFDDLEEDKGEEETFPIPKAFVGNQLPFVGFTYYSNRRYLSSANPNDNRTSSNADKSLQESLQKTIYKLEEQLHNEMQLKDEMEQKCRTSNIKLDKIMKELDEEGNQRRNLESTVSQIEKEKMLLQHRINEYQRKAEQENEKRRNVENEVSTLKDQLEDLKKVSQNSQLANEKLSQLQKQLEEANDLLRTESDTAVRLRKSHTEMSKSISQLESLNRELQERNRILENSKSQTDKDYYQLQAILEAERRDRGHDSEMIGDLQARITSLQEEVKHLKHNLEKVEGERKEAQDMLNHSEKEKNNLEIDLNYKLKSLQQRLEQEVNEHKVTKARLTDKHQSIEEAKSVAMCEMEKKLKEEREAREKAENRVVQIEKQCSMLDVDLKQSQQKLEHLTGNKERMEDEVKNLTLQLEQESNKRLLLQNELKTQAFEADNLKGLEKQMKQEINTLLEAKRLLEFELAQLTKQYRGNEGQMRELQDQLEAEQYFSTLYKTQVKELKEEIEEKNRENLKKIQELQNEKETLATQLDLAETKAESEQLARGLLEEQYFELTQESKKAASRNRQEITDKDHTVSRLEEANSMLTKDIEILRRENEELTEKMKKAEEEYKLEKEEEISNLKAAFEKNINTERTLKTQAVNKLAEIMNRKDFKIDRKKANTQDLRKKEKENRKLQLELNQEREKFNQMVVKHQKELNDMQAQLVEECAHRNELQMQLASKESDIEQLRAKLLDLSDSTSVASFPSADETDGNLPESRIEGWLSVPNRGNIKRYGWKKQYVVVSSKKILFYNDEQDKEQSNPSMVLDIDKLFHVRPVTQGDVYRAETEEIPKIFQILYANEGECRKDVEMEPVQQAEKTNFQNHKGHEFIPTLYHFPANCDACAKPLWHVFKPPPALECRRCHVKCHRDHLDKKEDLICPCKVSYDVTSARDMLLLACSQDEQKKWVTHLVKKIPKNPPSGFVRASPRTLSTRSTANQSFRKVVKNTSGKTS
Chain of Ribosomal protein S6 kinase alpha-2 (Homo sapiens) (Q15349 whole entry, canonical isoform): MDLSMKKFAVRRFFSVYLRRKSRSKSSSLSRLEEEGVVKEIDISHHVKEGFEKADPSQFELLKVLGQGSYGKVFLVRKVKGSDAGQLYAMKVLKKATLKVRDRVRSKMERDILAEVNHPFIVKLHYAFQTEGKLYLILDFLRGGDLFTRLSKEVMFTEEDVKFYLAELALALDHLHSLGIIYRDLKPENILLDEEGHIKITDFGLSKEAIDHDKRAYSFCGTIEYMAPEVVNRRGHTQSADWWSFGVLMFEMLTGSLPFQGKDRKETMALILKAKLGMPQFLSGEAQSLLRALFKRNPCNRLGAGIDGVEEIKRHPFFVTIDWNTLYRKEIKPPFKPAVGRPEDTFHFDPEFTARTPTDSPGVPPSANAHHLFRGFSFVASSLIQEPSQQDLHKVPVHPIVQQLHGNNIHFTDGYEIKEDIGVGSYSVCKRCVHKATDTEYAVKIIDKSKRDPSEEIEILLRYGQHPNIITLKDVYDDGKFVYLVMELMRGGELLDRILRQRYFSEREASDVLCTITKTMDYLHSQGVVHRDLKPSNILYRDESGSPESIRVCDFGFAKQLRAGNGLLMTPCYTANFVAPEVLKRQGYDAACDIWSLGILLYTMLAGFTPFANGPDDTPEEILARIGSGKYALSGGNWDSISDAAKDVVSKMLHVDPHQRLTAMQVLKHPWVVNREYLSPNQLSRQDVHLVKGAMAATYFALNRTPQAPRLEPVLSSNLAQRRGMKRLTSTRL

With `COc1cc2nc(C)nc(N[C@H](C)c3cccc(-c4cn[nH]c4)c3)c2cc1OC`, the Activity in assay [1] stood at 76%; in assay [2], 67%; in [3], 93%; in assay [4] it was 85%; in assay [5], 100%; in [6] it was 90%. The Activity in assay [7] came to 74%; in assay [8], 96%; in assay [9], 67%; in [10], 65%; in assay [11], 55%; in the assay filed under Homo sapiens, 71%.

With `COc1cc2ncnc(N[C@H](C)c3cccc4ccccc34)c2cc1OC`, the Activity in [1] is 96%; in [2], 100%; in assay [3], 85%; in assay [4], 86%; in [5], 97%; in assay [6], 100%. The Activity came out at 100% in assay [7]; 88% in assay [8]; 96% in [9]; 100% in [10]; 96% in [11]; 93% in the assay filed under Homo sapiens.

The values are drawn from ChEMBL document CHEMBL5678818, “Discovery of potent SOS1 inhibitors that block RAS activation via disruption of the RAS-SOS1 interaction” (Proc Natl Acad Sci U S A, 2019).
